What was measured:
HepG2 cells [1] = experiment: Dose-dependent gene-transcriptional activity (Affymetrix GeneChip U133A) in HepG2 cells treated for 7 days; format: cell-based; conditions: for Difference in EC50 or IC50 values between RRR-α-T and all-rac-α-T / Number of genes dose-dependently regulated: HepG2; for EC50: HepG2, 104 induced genes, read-out: Transcriptional induction potency EC50, Mean ± SD; for EC50 / IC50: 7 days, 0-300 μM α-tocopheryl acetate in the media; for IC50: HepG2, 111 repressed genes, read-out: Transcriptional repression potency IC50, Mean ± SD; for Number of genes dose-dependently regulated: of the 14500 genes on the Affymetrix GeneChip U133A
Description: (§1) HepG2 cells (ATCC HB-8065) were cultured in 6 cm dishes in DMEM medium (GIBCO-Invitrogen, Switzerland) with 10% NU serum™ (Becton Dickinson, Switzerland) containing 1% Pen/Strep and undetectable amounts of vitamin E (detection limit 20 nM). Vitamin E compounds were applied as the acetate derivatives: RRR-α-tocopheryl acetate (Sigma and DSM Nutritional Products Ltd., Switzerland; 99-99.5 weight %, determined by gas chromatography) and all-rac-α-tocopheryl acetate (DSM Nutritional Products Ltd, Kaiseraugst, Switzerland; 98.0-99.5 weight %, determined by gas chromatography) were dissolved in 100% ethanol to prepare stock solutions. Treatment media were prepared by the addition of RRR-α-tocopheryl acetate (RRR-α-Tac) or all-rac-α-tocopheryl acetate (all-rac-α-Tac) to the basic medium at the following final concentrations: 0 (ethanol only, 1% final concentration), 10, 30, 80 and 300 μM. Treatment media were aliquoted and stored at −20° C. The vitamin E acetate treatment was performed for 7 days during the logarithmic growth phase of the cells. All treatment media were exchanged for fresh media every 24 hours. This treatment strategy has been chosen in the attempt to keep vitamin E acetate concentrations stable over time and to reach steady state intracellular vitamin E concentrations at 7 days of supplementation. All treatments were performed in quadruplicate dishes.
Cells were washed three times with PBS and lyzed with RTL buffer (Qiagen, Basel, Switzerland). Total RNA isolation was performed using RNeasy mini spin columns (Qiagen) and DNase digested on the columns (RNase-Free DNase Set, Qiagen) according to the manufacturer's description. cRNA preparation and Affymetrix GeneChip (U133A) hybridization were performed as described.
Data processing was carried out using the RACE-A analysis tool (Roche Bioinformatics, Basel, Switzerland) as described. Briefly, the arrays were normalized against the mean of the total sum of Average Difference (AvgDiff) values across all arrays used. Mean Average Difference values (MeanAvgDiff) were calculated as the means of one experiment performed in quadruplicate. Possible outliers were identified using the procedure of Nalimov with a 95% confidence interval. Subsequently, mean change factors (Chgf) for each individual gene were calculated among the different treatment groups and control using pair wise comparisons, and statistical significance was assessed by Student's t-test with prior testing for the normal distribution of the data. Applicant selected for those genes showing a dose-dependent regulation by vitamin E, i.e. maximal MeanAvgDiff>10 combined with a significant (p<0.05) differential Chgf between the vitamin E supplemented groups and the control group. The analysis of the experimental data obtained upon stimulation/treatment of the cells with RRR-α-Tac or all-rac-α-Tac was performed independently from each other.
EC50 and IC50 values, respectively, were determined by applying the standard four parameter model [y=a+(b−a)/(1+(x/c)̂d)] using the XL-Fit Software 3.0 (IDBS Inc. Emeryville, USA), where y is the normalized gene expression, x is the concentration of RRR-α-tocopherol or all-rac-α-tocopherol in the media and c corresponds to the EC50 and IC50 values, respectively. The potency-ratios were calculated as following: EC50RRR-α-T/EC50all-rac-α-T and IC50RRR-α-T/IC50all-rac-α-T.

HepG2 cells [2] = experiment: Cellular α-tocopherol concentrations in HepG2 cells (HPLC); format: cell-based; conditions: for Difference between the intracellular concentrations of RRR-α-T and all-rac-α-T: HepG2, 7 days; for Amount of free cellular vitamin E compared to control cells: HepG2, 7 days, 10, 30, 80 or 300 μM acetate in the media
Description: as §1
Adherent HepG2 cells were trypsinized, collected and washed three times with PBS containing 1% bovine serum albumin. Cells were saponified in a methanolic potassium hydroxide solution. The solution was diluted with 35% ethanol and extracted with hexane/toluene. α-Tocopheryl acetate and hydrolyzed α-tocopherols were quantified by isocratic HPLC analysis.

[3] = animal studies; cited from earlier work

| Difference in EC50 or IC50 values between RRR-α-T and all-rac-α-T (HepG2 cells [1]) | EC50 (HepG2 cells [1]) [µM] | IC50 (HepG2 cells [1]) [µM] | Difference between the intracellular concentrations of RRR-α-T and all-rac-α-T (HepG2 cells [2]) | Amount of free cellular vitamin E compared to control cells (HepG2 cells [2]) | SMILES | Number of genes dose-dependently regulated (HepG2 cells [1]) | Potency ratio EC50RRR-α-T/EC50all-rac-α-T, Mean ± SD (HepG2 cells [1]; HepG2, 104 genes) | Potency ratio IC50RRR-α-T/IC50all-rac-α-T, Mean ± SD (HepG2 cells [1]; HepG2, 111 genes) | Overall biopotency factor (mean of all 215 potency ratios RRR-α-T to all-rac-α-T) (HepG2 cells [1]; HepG2, 215 genes) | Potency ratio Overall, Mean ± SD (HepG2 cells [1]; HepG2, 215 genes) | Biological potency relative to all-rac-α-T (times) [3] |
| --- | --- | --- | --- | --- | --- | --- | --- | --- | --- | --- | --- |
| no statistically significant differences | 14 ± 9.1 | 6 ± 4.5 | no significant difference | significantly increased | Cc1c(C)c2c(c(C)c1O)CCC(C)(CCCC(C)CCCC(C)CCCC(C)C)O2 (racemic) [all-rac-α-T, all-rac-α-tocopherol] | 215 |  |  |  |  |  |
| no statistically significant differences | 18 ± 10.7 | 6.4 ± 6.8 | no significant difference | significantly increased | Cc1c(C)c2c(c(C)c1O)CC[C@@](C)(CCC[C@H](C)CCC[C@H](C)CCCC(C)C)O2 [RRR-α-T, (2R,4′R,8′R)-α-tocopherol] | 215 | 0.9 ± 0.6 | 1.2 ± 0.7 | 1.05 | 1.05 ± 0.7 | 1.36 |

Reference: patent US20080194417A1, “Method for Measuring and Comparing the Activity of Biologically Active Compounds” (priority 2005, published 2008)
